These are literature values, as cited in US20060088904A1, “Methods for the synthesis of astaxanthin” (priority 2004, published 2006).

SMILES strings stand for the structures.

For data set [1], the system named is peroxyl radical chain reaction in liposome systems. Conditions: appropriate dose.
Data set [2] concerns transformed cells as well as normal prostatic epithelium. Conditions: cultured human cells; alone and/or in combination with other antioxidants (e.g. vitamin E).
Data set [3] deals with cigarette-smoke induced lung pathology. Particulars: ferret.

For `CC1=C(/C=C/C(C)=C/C=C/C(C)=C/C=C/C=C(C)/C=C/C=C(C)/C=C/C2=C(C)C(=O)C(O)CC2(C)C)C(C)(C)CC(O)C1=O` (stereo not drawn) [astaxanthin], in data set [1], the “suppression of peroxyl radical chain reaction” value was “completely suppress”. Regarding `CC(C)=CCC/C(C)=C/C=C/C(C)=C/C=C/C(C)=C/C=C/C=C(C)/C=C/C=C(C)/C=C/C=C(\C)CCC=C(C)C` [lycopene], the growth inhibition entry in data set [2] was “growth inhibitory”. Moreover, in data set [3], the “protection against cigarette-smoke induced lung pathology” value is “protective”.
